Each block holds one compound with its values, some of them ahead of it.
Columns and labels:
[1] = test system: human cerebral artery rings; assay: tone of isolated human cerebral artery rings exposed to prostanoid receptor agonists; format: cell-based; settings: for effect on smaller diameter cerebral artery rings contracted with phenylephrine, TP receptors blocked: phenylephrine 1 μM, GR32191 1 μM in bathing solution
Procedure: Sections of cerebral artery were removed from different regions of preparations of human cerebral vasculature containing an intact circle of Willis. Intact rings of this cerebral artery, 2-3 mm in length, were set up under isometric conditions in 10 ml organ baths under an initial tension of 1 g. All tissues were maintained at 37° C. and gassed constantly with 95% O2/5% CO2. Following a 90 min equilibration period all tissues were challenged with phenylephrine (1 μM), to determine tissue viability. Once a stable contraction had been obtained, tissues were exposed to a range of prostanoid receptor agonists, in the absence or presence of receptor antagonists, to determine the functional role of prostanoid receptors in maintaining arterial tone.

pulmonary artery = assay: effect on pre-contracted pulmonary artery rings; format: cell-based, human; settings: tone induced with U-46619 10-100 nM; n=3 donors
Procedure: (§1) Rings (2-4 mm internal diameter) were prepared from sections of pulmonary or coronary artery (n=3 each). They were mounted in organ baths under isometric conditions, in gassed Krebs solution (containing indomethacin) at 37° C., and 1-1.5 g initial tone.

coronary artery = assay: effect on pre-contracted coronary artery rings; format: cell-based, human; settings: n=3 donors; for relaxation of coronary artery: tone induced with phenylephrine 1-10 μM or endothelin-1
Procedure: as §1

EP3 = biological target: T1, EP3 (Homo sapiens, UniProt P43115); settings: cited from earlier work
T1 sequence (P43115 1-390): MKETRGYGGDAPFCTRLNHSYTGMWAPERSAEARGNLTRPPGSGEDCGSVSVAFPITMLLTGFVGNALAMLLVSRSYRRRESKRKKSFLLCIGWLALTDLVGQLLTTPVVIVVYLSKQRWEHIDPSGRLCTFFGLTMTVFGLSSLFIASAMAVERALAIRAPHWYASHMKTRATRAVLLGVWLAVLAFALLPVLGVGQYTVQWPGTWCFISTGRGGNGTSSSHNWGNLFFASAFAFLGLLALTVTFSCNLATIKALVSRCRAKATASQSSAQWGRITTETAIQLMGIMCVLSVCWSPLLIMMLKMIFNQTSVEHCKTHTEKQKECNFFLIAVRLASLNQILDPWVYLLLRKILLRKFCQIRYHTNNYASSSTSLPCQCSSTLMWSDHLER

EP2 = EP2 (Homo sapiens, UniProt P43116); settings: cited from earlier work
EP1 = settings: cited from earlier work
EP4 receptors = biological target: T2, EP4 receptors (Sus scrofa, UniProt I3LLK4); settings: blockade of EP4 receptors; cited from earlier work
T2 construct: providing a natural source of the receptors, such as piglet saphenous vein; from tissue; host or cells: piglet saphenous vein rings

EP4 receptor = biological target: T3, EP4 receptor (Homo sapiens, UniProt P35408); assay: antagonism of PGE2-mediated relaxation of phenylephrine pre-contracted middle cerebral artery rings; format: cell-based; settings: 10 mM AH23848, 45 mins; P=0.004
T3 construct: Intact rings of this cerebral artery, 2-3 mm in length, were set up under isometric conditions; from tissue; host or cells: human middle cerebral artery rings (one donor)
Procedure: Sections of cerebral artery were removed from different regions of preparations of human cerebral vasculature containing an intact circle of Willis. […] Once a stable contraction had been obtained, tissues were exposed to a range of prostanoid receptor agonists, in the absence or presence of receptor antagonists, to determine the functional role of prostanoid receptors in maintaining arterial tone.
To test the effect of the EP4 receptor antagonist AH23848, cerebral rings were preincubated for 45 mins with 10 mM AH23848.

Chain of EP2 (P43116 whole entry): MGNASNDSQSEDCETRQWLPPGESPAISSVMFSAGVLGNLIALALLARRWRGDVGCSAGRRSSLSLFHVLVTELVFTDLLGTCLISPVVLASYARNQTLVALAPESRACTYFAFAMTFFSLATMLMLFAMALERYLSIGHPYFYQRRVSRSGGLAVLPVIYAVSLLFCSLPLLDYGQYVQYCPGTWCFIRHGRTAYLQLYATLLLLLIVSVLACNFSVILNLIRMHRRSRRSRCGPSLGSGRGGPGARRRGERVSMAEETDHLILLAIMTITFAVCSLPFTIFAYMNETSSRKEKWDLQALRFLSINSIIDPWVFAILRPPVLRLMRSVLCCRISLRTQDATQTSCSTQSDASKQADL
T2 sequence (I3LLK4 1-489): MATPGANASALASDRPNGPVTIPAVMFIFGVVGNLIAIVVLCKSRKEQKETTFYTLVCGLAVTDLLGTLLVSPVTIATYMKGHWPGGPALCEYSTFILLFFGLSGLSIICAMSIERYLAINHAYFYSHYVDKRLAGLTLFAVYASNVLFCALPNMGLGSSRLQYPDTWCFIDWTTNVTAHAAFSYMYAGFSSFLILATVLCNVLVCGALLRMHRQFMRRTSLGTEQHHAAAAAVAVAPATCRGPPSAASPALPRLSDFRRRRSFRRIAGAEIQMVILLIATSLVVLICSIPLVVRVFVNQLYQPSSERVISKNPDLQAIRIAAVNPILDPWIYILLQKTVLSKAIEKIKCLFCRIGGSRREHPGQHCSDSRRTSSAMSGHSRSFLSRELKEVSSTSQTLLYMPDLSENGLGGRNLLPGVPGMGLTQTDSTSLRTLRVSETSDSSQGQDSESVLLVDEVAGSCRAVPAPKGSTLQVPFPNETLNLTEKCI
T3 sequence (P35408 whole entry): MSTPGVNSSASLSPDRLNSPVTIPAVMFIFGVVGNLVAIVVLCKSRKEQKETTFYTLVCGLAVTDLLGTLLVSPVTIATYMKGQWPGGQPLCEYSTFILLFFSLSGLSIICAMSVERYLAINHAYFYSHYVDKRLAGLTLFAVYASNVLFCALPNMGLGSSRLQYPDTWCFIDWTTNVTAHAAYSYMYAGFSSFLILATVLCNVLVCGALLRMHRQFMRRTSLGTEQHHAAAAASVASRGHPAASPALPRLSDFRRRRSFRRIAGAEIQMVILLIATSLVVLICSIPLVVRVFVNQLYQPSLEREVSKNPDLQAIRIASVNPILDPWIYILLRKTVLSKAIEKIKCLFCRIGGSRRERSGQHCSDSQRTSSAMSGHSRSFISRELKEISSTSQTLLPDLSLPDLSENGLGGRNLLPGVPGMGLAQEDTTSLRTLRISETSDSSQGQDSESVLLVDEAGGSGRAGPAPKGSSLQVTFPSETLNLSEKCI

- effect on smaller diameter cerebral artery rings contracted with phenylephrine, TP receptors blocked [1]: neither compound caused relaxation
Structure (SMILES): CCCCCC(O)c1ccc([C@@H]2CCC(=O)[C@H]2CCCCCCC(=O)O)cc1 (relative stereo) [AH13205, trans-2-(4-[1-hydroxyhexyl]phenyl)-5-oxocyclopentaneheptanoate]

- shift of PGE2-mediated relaxation curve (EP4 receptor): significant rightward shift
Structure (SMILES): O=C(O)CC/C=C\CC[C@@H]1C(N2CCOCC2)C(=O)C[C@@H]1OCc1ccc(-c2ccccc2)cc1 (stereo partly shown) [AH23848]
- effect on EP3 receptor subtype (EP3): no effect
- effect on EP2 receptor subtype (EP2): no effect
- effect on EP1 receptor subtype (EP1): no effect
- pA2 against PGE2-induced relaxation of piglet saphenous vein (EP4 receptors): 5.4

- effect on smaller diameter cerebral artery rings contracted with phenylephrine, TP receptors blocked [1]: without effect
Structure (SMILES): CCCCC[C@H](O)/C=C/[C@H]1C(=O)C[C@H](O)[C@@H]1C/C=C\CCCC(=O)O [PGD2]

- relaxation of cerebral artery rings pre-contracted with U46619 or 5-HT ([1]; U46619 100 nM or 5-HT 300 nM and 1 μM, FIG. 2): maximal or near maximal relaxation
- effect of removal of the endothelium on the relaxant response ([1]; human cerebral arteries): did not affect
- effect on smaller pre-contracted cerebral vessels ([1]; internal diameter <1 mm, pre-contracted with phenylephrine): potent concentration-related relaxation
- effect on larger cerebral vessels ([1]; internal diameter >1 mm): concentration-related contraction
- concentration at which maximum relaxation occurs ([1]; vessel pre-contracted with phenylephrine, FIG. 1): below 10^−6 M
Structure (SMILES): CCCCC[C@H](O)/C=C/[C@H]1[C@H](O)CC(=O)[C@@H]1C/C=C\CCCC(=O)O [PGE2, prostaglandin E2]
- relaxation of pulmonary artery (pulmonary artery): did not cause relaxation
- contraction of coronary artery (coronary artery; pre-contracted preparations): small contraction
- relaxation of coronary artery (coronary artery): did not cause relaxation

More lines, now with the values behind:

Structure (SMILES): CCC#CC[C@H](C)[C@H](O)C#C[C@@H]1[C@H]2C/C(=C/COCC(=O)O)C[C@H]2C[C@H]1O [cicaprost]
- relaxation of pulmonary artery (pulmonary artery): induced a relaxation
- effect on smaller diameter cerebral artery rings contracted with phenylephrine, TP receptors blocked [1]: induced relaxation
- relaxation of coronary artery (coronary artery): induced a relaxation

Structure (SMILES): O=C(O)CCC/C=C\C[C@@H]1C(N2CCOCC2)C(=O)C[C@@H]1OCc1ccc(-c2ccccc2)cc1 (stereo partly shown) [AH22921]
- effect on EP3 receptor subtype (EP3): no effect
- effect on EP2 receptor subtype (EP2): no effect
- effect on EP1 receptor subtype (EP1): no effect
- pA2 against PGE2-induced relaxation of piglet saphenous vein (EP4 receptors): 5.3

Structure (SMILES): CC#CCC(C)[C@H](O)/C=C/[C@@H]1[C@H]2C/C(=C/CCCC(=O)O)C[C@H]2C[C@H]1O (stereo partly shown) [Iloprost]
- effect on smaller diameter cerebral artery rings contracted with phenylephrine, TP receptors blocked [1]: induced relaxation

Structure (SMILES): CCCC1([C@H](O)C/C=C/[C@H]2[C@H](O)CC(=O)[C@@H]2CCCCCCC(=O)OC)CCC1 [Butaprost]
- effect on smaller diameter cerebral artery rings contracted with phenylephrine, TP receptors blocked [1]: neither compound caused relaxation

Structure (SMILES): CCCCC[C@H](O)/C=C/[C@@H]1[C@@H](C/C=C\CCCC(=O)O)[C@@H](O)C[C@H]1O [PGF2α]
- effect on smaller diameter cerebral artery rings contracted with phenylephrine, TP receptors blocked [1]: without effect

Source: US8513027B2, “Method of identifying an inhibitor of the prostanoid EP4 receptor” (Asterand UK Acquisition Limited, priority 1998, dated 2013)
